In BindingDB's records for doi:10.1021/jm010853h (Sapienza University of Rome, 2001) one finds IC50 data, which are given here for 1 molecule.

This experiment concerns the target T1, Gag-Pol polyprotein [588-1027]/[588-1147] (Human immunodeficiency virus 1, UniProt P04585).
T1 construct: 588-1027; 588-1147
The experiment can be described thus: HIV-1 RT Assay. The note with it: pH 7.8; 37 °C.

Broadly, the IC50 is the concentration that inhibits the measured activity by half. A high value points to weaker potency. The molecule `CCC(c1ccccc1)c1cc(=O)[nH]c(SC2CCCC2)n1` (stereo unspecified) [2-(cyclopentylsulfanyl)-6-(1-phenylpropyl)-3,4-dihydropyrimidin-4-one] returned an IC50 greater than 10 µM.
